Consider one compound from patent publication US20110123651A1, “DIETARY SUPPLEMENT DRINK FOR DELIVERY OF RESVERATROL AND OTHER POLYPHENOLS” (priority 2009, published 2011).

This data set can be described thus: Buccal delivery of resveratrol in humans: free resveratrol in plasma. It is filed as in vivo. The note with it: human, 1 mg resveratrol in 50 mL solution retained in the mouth for one minute before swallowing, plasma two minutes later, read-out: free resveratrol measured in plasma. The procedure: One efficient way of administering resveratrol in humans may be buccal delivery, that is without immediate swallowing, by direct absorption through the inside of the mouth. As an example, when one mg of resveratrol in 50 mL solution was retained in the mouth for one minute before swallowing, 37 ng/ml of free resveratrol was measured in plasma two minutes later. This level of unchanged resveratrol in blood can only be achieved with 250 mg of resveratrol taken in pill form.

`Oc1ccc(C=Cc2cc(O)cc(O)c2)cc1` [resveratrol]: the concentration at 2 min worked out at 37 ng/mL.
